Source: patent US6737383B1, “Herbicidal oxadiazolidines” (priority 1999, dated 2004)

What was measured:
rape = assay: Test B pre/postemergence rape; assay type: in vivo, Brassica napus
In short: (§1)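 Herbicidal effect was estimated by eye on a ten-point control scale after plants spent twelve to sixteen days in a greenhouse following soil or foliar treatment. Foliar sprays targeted plants at one to four leaves; all doses were formulated in a non-phytotoxic solvent with surfactant.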

cocklebur = assay: Test B pre/postemergence cocklebur; assay type: in vivo, Xanthium strumarium
In short: as §1

wheat = assay: Test B pre/postemergence wheat; assay type: in vivo, Triticum aestivum
In short: as §1

smallflower flatsedge = assay: Test B flood test smallflower flatsedge; assay type: in vivo, Cyperus difformis; settings: Pre-emergence
In short: (§2)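 Flood test on plants grown to the 2-leaf stage; treated plants kept in greenhouse twelve to sixteen days, then visually rated against controls on a 0 (no effect) to 10 (complete control) scale.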

pigweed = assay: Test B pre/postemergence pigweed; assay type: in vivo, Amaranthus retroflexus
In short: as §1

bedstraw = assay: Test B pre/postemergence bedstraw; assay type: in vivo, Galium aparine
In short: as §1

velvetleaf = assay: Test B pre/postemergence velvetleaf; assay type: in vivo, Abutilon theophrasti
In short: as §1

blackgrass = assay: Test B pre/postemergence blackgrass; assay type: in vivo, Alopecurus myosuroides
In short: as §1

purple nutsedge = assay: Test B pre/postemergence purple nutsedge; assay type: in vivo, Cyperus rotundus
In short: as §1

sugar beet = assay: Test B pre/postemergence sugar beet; assay type: in vivo, Beta vulgaris
In short: as §1

corn = assay: Test B pre/postemergence corn; assay type: in vivo, Zea mays
In short: as §1

crabgrass = assay: Test B pre/postemergence crabgrass; assay type: in vivo, Digitaria sanguinalis
In short: as §1

soybean = assay: Test B pre/postemergence soybean; assay type: in vivo, Glycine max
In short: as §1

wild oat = assay: Test B pre/postemergence wild oat; assay type: in vivo, Avena fatua
In short: as §1

bamyardgrass = assay: Test B flood test barnyardgrass; assay type: in vivo, Echinochloa crus-galli; settings: Pre-emergence
In short: as §2

surinam grass = assay: Test B pre/postemergence surinam grass; assay type: in vivo, Brachiaria decumbens
In short: as §1

[1] = Postemergence, Rate 1000 g/ha, scale 0 to 10 (0 no effect, 10 complete control)
[2] = Preemergence, Rate 250 g/ha, scale of 0 to 10 where 0 is no effect and 10 is complete control
[3] = Preemergence, Rate 500 g/ha, scale of 0 to 10 where 0 is no effect and 10 is complete control
[4] = Rate 125 g/ha, Postemergence, scale of 0 to 10 where 0 is no effect and 10 is complete control
[5] = Rate 125 g/ha, Preemergence, scale of 0 to 10 where 0 is no effect and 10 is complete control
[6] = Rate 250 g/ha, Postemergence, scale of 0 to 10 where 0 is no effect and 10 is complete control
[7] = Rate 500 g/ha, Postemergence, scale 0 to 10, 0 no effect, 10 complete control
[8] = Rate 1000 g/ha, Preemergence, scale 0 to 10 (0 no effect, 10 complete control)
[9] = Rate 1000 g/ha, scale 0 to 10 (0 no effect, 10 complete control)
[10] = Rate 125 g/ha, flood test species, scale 0 to 10 where 0 is no effect and 10 is complete control
[11] = Rate 250 g/ha, flood-test species, scale 0 to 10, 0 is no effect, 10 is complete control
[12] = Rate 500 g/ha, flood test species, scale 0 to 10 (0 no effect, 10 complete control)

C=CCn1c(=O)on(C(=O)N(c2ccc(F)cc2)C(C)C(=O)OCC)c1=O (stereo not drawn) [Compound 279]
0: Rape plant response rating (rape; [1]) | Rape plant response rating (rape; [2]) | Plant response rating, Rape (rape; [3]) | Rape plant response rating (rape; [4]) | Rape plant response rating (rape; [5]) | Plant response rating, Rape (rape; [6]) | Rape plant response rating (rape; [7]) | Plant response rating, Rape (rape; [8]) | Cocklebur plant response rating (cocklebur; [1]) | Plant response rating, Cocklebur (cocklebur; [3]) | Cocklebur plant response rating (cocklebur; [4]) | Plant response rating, Cocklebur (cocklebur; [6]) | Cocklebur plant response rating (cocklebur; [7]) | Plant response rating, Cocklebur (cocklebur; [8]) | Wheat plant response rating (wheat; [2]) | Plant response rating, Wheat (wheat; [3]) | Wheat plant response rating (wheat; [4]) | Wheat plant response rating (wheat; [5]) | Plant response rating, Wheat (wheat; [6]) | Wheat plant response rating (wheat; [7]) | Plant response rating, Wheat (wheat; [8]) | S. Flatsedge plant response rating (smallflower flatsedge; [9]) | S. Flatsedge plant response rating (smallflower flatsedge; [10]) | S. Flatsedge plant response rating (smallflower flatsedge; [11]) | S. Flatsedge plant response rating (smallflower flatsedge; [12]) | Redroot pigweed plant response rating (pigweed; [2]) | Plant response rating, Redroot pigweed (pigweed; [3]) | Redroot pigweed plant response rating (pigweed; [4]) | Redroot pigweed plant response rating (pigweed; [5]) | Plant response rating, Redroot pigweed (pigweed; [8]) | Bedstraw plant response rating (bedstraw; [1]) | Bedstraw plant response rating (bedstraw; [2]) | Plant response rating, Bedstraw (bedstraw; [3]) | Bedstraw plant response rating (bedstraw; [4]) | Bedstraw plant response rating (bedstraw; [5]) | Plant response rating, Bedstraw (bedstraw; [6]) | Bedstraw plant response rating (bedstraw; [7]) | Plant response rating, Bedstraw (bedstraw; [8]) | Velvetleaf plant response rating (velvetleaf; [1]) | Velvetleaf plant response rating (velvetleaf; [2]) | Plant response rating, Velvetleaf (velvetleaf; [3]) | Velvetleaf plant response rating (velvetleaf; [4]) | Velvetleaf plant response rating (velvetleaf; [5]) | Plant response rating, Velvetleaf (velvetleaf; [6]) | Velvetleaf plant response rating (velvetleaf; [7]) | Plant response rating, Velvetleaf (velvetleaf; [8]) | Blackgrass plant response rating (blackgrass; [2]) | Plant response rating, Blackgrass (blackgrass; [3]) | Blackgrass plant response rating (blackgrass; [4]) | Blackgrass plant response rating (blackgrass; [5]) | Plant response rating, Blackgrass (blackgrass; [8]) | Nutsedge plant response rating (purple nutsedge; [1]) | Nutsedge plant response rating (purple nutsedge; [2]) | Nutsedge plant response rating (purple nutsedge; [4]) | Plant response rating, Nutsedge (purple nutsedge; [6]) | Nutsedge plant response rating (purple nutsedge; [7]) | Plant response rating, Nutsedge (purple nutsedge; [8]) | Sugarbeets plant response rating (sugar beet; [2]) | Plant response rating, Sugarbeets (sugar beet; [3]) | Sugarbeets plant response rating (sugar beet; [4]) | Sugarbeets plant response rating (sugar beet; [5]) | Plant response rating, Sugarbeets (sugar beet; [6]) | Sugarbeets plant response rating (sugar beet; [7]) | Plant response rating, Sugarbeets (sugar beet; [8]) | Corn plant response rating (corn; [1]) | Corn plant response rating (corn; [2]) | Plant response rating, Corn (corn; [3]) | Corn plant response rating (corn; [4]) | Corn plant response rating (corn; [5]) | Plant response rating, Corn (corn; [6]) | Corn plant response rating (corn; [7]) | Plant response rating, Corn (corn; [8]) | Crabgrass plant response rating (crabgrass; [2]) | Crabgrass plant response rating (crabgrass; [4]) | Crabgrass plant response rating (crabgrass; [5]) | Plant response rating, Crabgrass (crabgrass; [6]) | Crabgrass plant response rating (crabgrass; [7]) | Soybean plant response rating (soybean; [2]) | Plant response rating, Soybean (soybean; [3]) | Soybean plant response rating (soybean; [4]) | Soybean plant response rating (soybean; [5]) | Plant response rating, Soybean (soybean; [8]) | Wild oats plant response rating (wild oat; [1]) | Wild oats plant response rating (wild oat; [2]) | Plant response rating, Wild oats (wild oat; [3]) | Wild oats plant response rating (wild oat; [4]) | Plant response rating, Wild oats (wild oat; [6]) | Wild oats plant response rating (wild oat; [7]) | Plant response rating, Wild oats (wild oat; [8]) | Barnyardgrass plant response rating (bamyardgrass; [9]) | Barnyardgrass plant response rating (bamyardgrass; [10]) | Barnyardgrass plant response rating (bamyardgrass; [11]) | Barnyardgrass plant response rating (bamyardgrass; [12]) | B. signalgrass plant response rating (surinam grass; [1]) | B. signalgrass plant response rating (surinam grass; [2]) | Plant response rating, B. signalgrass (surinam grass; [3]) | B. signalgrass plant response rating (surinam grass; [4]) | B. signalgrass plant response rating (surinam grass; [5]) | Plant response rating, B. signalgrass (surinam grass; [6]) | B. signalgrass plant response rating (surinam grass; [7]) | Plant response rating, B. signalgrass (surinam grass; [8])
4: Redroot pigweed plant response rating (pigweed; [1]) | Blackgrass plant response rating (blackgrass; [7]) | Sugarbeets plant response rating (sugar beet; [1]) | Plant response rating, Crabgrass (crabgrass; [8]) | Soybean plant response rating (soybean; [1]) | Soybean plant response rating (soybean; [7])
6: Blackgrass plant response rating (blackgrass; [1])
1: Wheat plant response rating (wheat; [1]) | Plant response rating, Crabgrass (crabgrass; [3])
2: Plant response rating, Redroot pigweed (pigweed; [6]) | Redroot pigweed plant response rating (pigweed; [7]) | Plant response rating, Blackgrass (blackgrass; [6]) | Plant response rating, Soybean (soybean; [6])
